Source: paper PMC3469775 (Journal of medicinal chemistry, 2012)

Molecular target: T1, human placental aromatase (Homo sapiens, UniProt P11511)
T1 sequence (P11511 1-503): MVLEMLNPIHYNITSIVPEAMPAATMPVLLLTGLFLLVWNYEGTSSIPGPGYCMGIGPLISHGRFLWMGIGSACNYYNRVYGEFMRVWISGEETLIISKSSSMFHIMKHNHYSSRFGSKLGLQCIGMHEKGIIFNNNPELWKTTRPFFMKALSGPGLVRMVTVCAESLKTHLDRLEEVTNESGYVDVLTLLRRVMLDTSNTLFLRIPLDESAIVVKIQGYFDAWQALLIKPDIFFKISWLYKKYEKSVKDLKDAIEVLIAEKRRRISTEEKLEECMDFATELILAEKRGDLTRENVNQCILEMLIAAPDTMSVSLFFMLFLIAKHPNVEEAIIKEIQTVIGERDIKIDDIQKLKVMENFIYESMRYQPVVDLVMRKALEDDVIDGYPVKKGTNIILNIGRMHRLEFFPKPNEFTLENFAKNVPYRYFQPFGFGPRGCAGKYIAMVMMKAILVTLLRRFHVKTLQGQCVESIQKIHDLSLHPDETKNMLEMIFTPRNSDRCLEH
Test: Inhibition of purified human placental aromatase
Assay type: biochemical
Settings: for fold less potent than the AIs (IC50): compared with the AIs; for IC50 (in words): purified placental aromatase

| Compound | fold less potent than the AIs (IC50) | IC50 (in words) | inhibition at 300 µM (read-out: inhibition of the enzyme activity) |
| --- | --- | --- | --- |
| CO[C@@H]1C[C@@H]2[C@H](CC[C@]3(C)C(=O)CC[C@@H]23)[C@@]2(C)C=CC(=O)C=C12 [Compound 2, (6R,8R,9S,10R,13S,14S)-6-Methoxy-10,13-dimethyl-7,8,9,10,11,12,13,14,15,16-decahydro-3H-cyclopenta[a]-phenanthrene-3,17(6H)-dione] | about 1000 fold | several micromolar |  |
| CCO[C@@H]1C[C@@H]2[C@H](CC[C@]3(C)C(=O)CC[C@@H]23)[C@@]2(C)C=CC(=O)C=C12 [Compound 3, (6R,8R,9S,10R,13S,14S)-6-Ethoxy-10,13-dimethyl-7,8,9,10,11,12,13,14,15,16-decahydro-3H-cyclopenta[a]-phenanthrene-3,17(6H)-dione] | about 1000 fold | several micromolar |  |
| CC#CCO[C@@H]1C[C@@H]2[C@H](CC[C@]3(C)C(=O)CC[C@@H]23)[C@@]2(C)C=CC(=O)C=C12 [Compound 4, (6R,8R,9S,10R,13S,14S)-6-(But-2-ynyloxy)-10,13-dimethyl-7,8,9,10,11,12,13,14,15,16-decahydro-3H-cyclopenta[a]-phenanthrene-3,17(6H)-dione] |  |  | 93% |
